Reference: patent US8420309B2, “Method of screening compounds using CALHM (FAM26C)” (The Feinstein for Medical Research, priority 2007, dated 2013)

System: CALHM1
Test: CALHM1 N-glycosylation, western blot of transfected HEK293 cells
Assay type: cell-based, human
Details: HEK293 cells transfected with Myc-CALHM1 for six hours, 10 μg/ml tunicamycin, anti-Myc WB
Method: Western blotting (WB) and immunoprecipitation (IP) assays. For WB, cells were washed with PBS and solubilized in ice-cold HEPES buffer (25 mM HEPES, pH 7.4, 150 mM NaCl, 1X Complete protease inhibitor cocktail, Roche) containing 1% SDS. Ten micrograms of extracts was analyzed by SDS-PAGE. A standard ECL detection procedure was then used. For multimerization analyses and IP, cells were harvested six hours after transfection with the indicated CALHM1 cDNAs. Cells were then solubilized for 2 h at 4° C. in HEPES buffer containing 1% Nonidet P-40. Cell extracts were pre-cleared by centrifugation at 10,000 rpm for 5 min. For multimerization analyses, cell extracts were analyzed by WB in the absence (non-reducing conditions) or presence of 5% β-mercaptoethanol (reducing conditions). For IP, supernatants were immunoprecipitated with immobilized anti-Myc antibody, as per supplier's instructions (ProFound Mammalian c-Myc Tag IP Kit, Pierce). Total extracts and immunoprecipitated proteins were then analyzed by WB.
CALHM1 deglycosylation. […] CALHM1-transfected HT-22 cells were solubilized and incubated for 16 h at 37° C. in digestion buffer (50 mM NaH2PO4, pH 7.4, 20 mM EDTA, 0.2% SDS, and 1% β-mercaptoethanol) in the absence or presence of PNGase F. Cell lysates were then analyzed by WB using anti-Myc antibody, as described above.

tunicamycin
appearance of the CALHM1 band of higher molecular weight (N-glycosylated form): completely inhibited
